Results as given in ChEMBL document CHEMBL2169819, “Synthesis and biological evaluation of 2-amino-3-(4-chlorobenzoyl)-4-[(4-arylpiperazin-1-yl)methyl]-5-substituted-thiophenes. effect of the 5-modification on allosteric enhancer activity at the A1 adenosine receptor” (J Med Chem, 2012).

Each compound was assayed against T1, Adenosine receptor A1 (Homo sapiens) (UniProt P30542) (assay: Allosteric enhancing activity at human adenosine A1 receptor expressed in CHO cells assessed as increase in CCPA-induced [3H]DPCPX displacement at 10 uM after 90 mins relative to control).
T1 sequence (whole entry): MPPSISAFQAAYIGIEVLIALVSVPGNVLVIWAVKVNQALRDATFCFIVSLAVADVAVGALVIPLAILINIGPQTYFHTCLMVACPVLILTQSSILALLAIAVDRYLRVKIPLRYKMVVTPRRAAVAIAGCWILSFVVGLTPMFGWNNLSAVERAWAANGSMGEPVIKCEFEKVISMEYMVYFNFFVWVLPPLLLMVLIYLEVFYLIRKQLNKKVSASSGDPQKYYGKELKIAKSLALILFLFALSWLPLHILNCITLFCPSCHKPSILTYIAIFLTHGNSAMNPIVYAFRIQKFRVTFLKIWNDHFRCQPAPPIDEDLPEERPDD
Assay type: cell-based

Row | SMILES | Ratio Ki
1 | Nc1sc(-c2ccc(Cl)cc2)c(CN2CCN(c3ccc(Cl)c(Cl)c3)CC2)c1C(=O)c1ccc(Cl)cc1 | 7.7
2 | Nc1scc(CN2CCN(c3ccc(C(F)(F)F)cc3)CC2)c1C(=O)c1ccc(Cl)cc1 | 6.3
3 | Nc1sc(-c2ccc(Cl)cc2)c(CN2CCN(c3ccc(C(F)(F)F)cc3)CC2)c1C(=O)c1ccc(Cl)cc1 | 10.5
4 | Cc1sc(N)c(C(=O)c2ccc(Cl)cc2)c1CN1CCN(c2ccc(I)cc2)CC1 | 4.8
5 | Nc1sc(-c2ccccc2)c(CN2CCN(c3cccc(C(F)(F)F)c3)CC2)c1C(=O)c1ccc(Cl)cc1 | 7.1
6 | Cc1sc(N)c(C(=O)c2ccc(Cl)cc2)c1CN1CCN(c2ccc(F)cc2)CC1 | 5.2
7 | COc1ccc(N2CCN(Cc3c(C)sc(N)c3C(=O)c3ccc(Cl)cc3)CC2)cc1 | 2.6
8 | Nc1sc(-c2ccccc2)c(CN2CCN(c3ccccc3)CC2)c1C(=O)c1ccc(Cl)cc1 | 8.3

The compounds below were run against T1, Adenosine receptor A1 (Homo sapiens) (assay: Allosteric enhancing activity at human adenosine A1 receptor expressed in CHO cells assessed as increase in [3H]-2-chloro-N6-cyclopentyladenosine Bmax at 10 uM after 90 mins relative to control).
Assay type: cell-based

Row | SMILES | fold change (FC)
9 | Nc1sc(-c2ccc(Cl)cc2)c(CN2CCN(c3ccc(Cl)c(Cl)c3)CC2)c1C(=O)c1ccc(Cl)cc1 | 8.3
10 | Nc1scc(CN2CCN(c3ccc(C(F)(F)F)cc3)CC2)c1C(=O)c1ccc(Cl)cc1 | 7.7
11 | Nc1sc(-c2ccc(Cl)cc2)c(CN2CCN(c3ccc(C(F)(F)F)cc3)CC2)c1C(=O)c1ccc(Cl)cc1 | 11.2
12 | Cc1sc(N)c(C(=O)c2ccc(Cl)cc2)c1CN1CCN(c2ccc(I)cc2)CC1 | 5.4
13 | Nc1sc(-c2ccccc2)c(CN2CCN(c3cccc(C(F)(F)F)c3)CC2)c1C(=O)c1ccc(Cl)cc1 | 7.5
14 | Cc1sc(N)c(C(=O)c2ccc(Cl)cc2)c1CN1CCN(c2ccc(F)cc2)CC1 | 5.9
15 | COc1ccc(N2CCN(Cc3c(C)sc(N)c3C(=O)c3ccc(Cl)cc3)CC2)cc1 | 3.2
16 | Nc1sc(-c2ccccc2)c(CN2CCN(c3ccccc3)CC2)c1C(=O)c1ccc(Cl)cc1 | 11.5

Each compound was assayed against T2, Adenosine receptor A3 (Homo sapiens) (UniProt P0DMS8) (assay: Displacement of [3H]MRE-3008-F20 from human adenosine A3 receptor expressed in CHO cells at 10 uM after 120 mins by scintillation counting).
T2 sequence (whole entry): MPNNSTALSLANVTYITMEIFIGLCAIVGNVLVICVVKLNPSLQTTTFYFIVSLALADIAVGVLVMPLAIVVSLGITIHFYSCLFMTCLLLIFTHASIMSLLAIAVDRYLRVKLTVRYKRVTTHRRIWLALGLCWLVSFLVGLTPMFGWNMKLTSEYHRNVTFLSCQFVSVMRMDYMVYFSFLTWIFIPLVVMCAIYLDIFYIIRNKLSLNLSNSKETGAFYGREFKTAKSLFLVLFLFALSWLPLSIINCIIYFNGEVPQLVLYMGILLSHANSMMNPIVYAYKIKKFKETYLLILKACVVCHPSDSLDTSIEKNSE
Assay type: cell-based

Row | SMILES | inhibition
17 | Nc1sc(-c2ccc(Cl)cc2)c(CN2CCN(c3ccc(Cl)c(Cl)c3)CC2)c1C(=O)c1ccc(Cl)cc1 | < 12%
18 | Nc1sc(-c2ccc(Cl)cc2)c(CN2CCN(c3ccc(C(F)(F)F)cc3)CC2)c1C(=O)c1ccc(Cl)cc1 | < 12%
19 | Cc1sc(N)c(C(=O)c2ccc(Cl)cc2)c1CN1CCN(c2ccc(I)cc2)CC1 | < 12%
20 | Nc1sc(-c2ccccc2)c(CN2CCN(c3cccc(C(F)(F)F)c3)CC2)c1C(=O)c1ccc(Cl)cc1 | < 12%
21 | Cc1sc(N)c(C(=O)c2ccc(Cl)cc2)c1CN1CCN(c2ccc(F)cc2)CC1 | < 12%
22 | COc1ccc(N2CCN(Cc3c(C)sc(N)c3C(=O)c3ccc(Cl)cc3)CC2)cc1 | < 12%
23 | Nc1sc(-c2ccccc2)c(CN2CCN(c3ccccc3)CC2)c1C(=O)c1ccc(Cl)cc1 | < 12%

These compounds were tested against Adenosine receptor A2a (Homo sapiens) (UniProt P29274) (assay: Displacement of [3H]ZM241385 from human adenosine A2A receptor expressed in CHO cells at 10 uM after 120 mins by scintillation counting).
Assay type: cell-based

Adenosine receptor A2a (Homo sapiens), sequence (P29274 whole entry): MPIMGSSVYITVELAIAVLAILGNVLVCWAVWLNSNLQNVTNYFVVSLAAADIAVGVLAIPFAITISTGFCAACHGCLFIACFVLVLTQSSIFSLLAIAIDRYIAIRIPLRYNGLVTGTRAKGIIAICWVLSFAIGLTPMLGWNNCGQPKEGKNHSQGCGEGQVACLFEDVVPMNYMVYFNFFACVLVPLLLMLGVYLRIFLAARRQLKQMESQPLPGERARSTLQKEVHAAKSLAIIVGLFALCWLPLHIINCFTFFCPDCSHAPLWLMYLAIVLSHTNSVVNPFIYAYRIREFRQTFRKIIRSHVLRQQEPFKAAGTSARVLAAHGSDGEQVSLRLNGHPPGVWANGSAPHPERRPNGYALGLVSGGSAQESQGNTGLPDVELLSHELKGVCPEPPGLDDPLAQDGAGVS

Row | SMILES | inhibition
24 | Nc1sc(-c2ccc(Cl)cc2)c(CN2CCN(c3ccc(Cl)c(Cl)c3)CC2)c1C(=O)c1ccc(Cl)cc1 | < 12%
25 | Nc1sc(-c2ccc(Cl)cc2)c(CN2CCN(c3ccc(C(F)(F)F)cc3)CC2)c1C(=O)c1ccc(Cl)cc1 | < 12%
26 | Cc1sc(N)c(C(=O)c2ccc(Cl)cc2)c1CN1CCN(c2ccc(I)cc2)CC1 | < 12%
27 | Nc1sc(-c2ccccc2)c(CN2CCN(c3cccc(C(F)(F)F)c3)CC2)c1C(=O)c1ccc(Cl)cc1 | < 12%
28 | Cc1sc(N)c(C(=O)c2ccc(Cl)cc2)c1CN1CCN(c2ccc(F)cc2)CC1 | < 12%
29 | COc1ccc(N2CCN(Cc3c(C)sc(N)c3C(=O)c3ccc(Cl)cc3)CC2)cc1 | < 12%
30 | Nc1sc(-c2ccccc2)c(CN2CCN(c3ccccc3)CC2)c1C(=O)c1ccc(Cl)cc1 | < 12%

Each compound was assayed against T1, Adenosine receptor A1 (Homo sapiens) (assay: Displacement of [3H]DPCPX from human adenosine A1 receptor expressed in CHO cells at 10 uM after 120 mins by scintillation counting).
Assay type: cell-based

Row | SMILES | inhibition
31 | Nc1sc(-c2ccc(Cl)cc2)c(CN2CCN(c3ccc(Cl)c(Cl)c3)CC2)c1C(=O)c1ccc(Cl)cc1 | < 12%
32 | Nc1sc(-c2ccc(Cl)cc2)c(CN2CCN(c3ccc(C(F)(F)F)cc3)CC2)c1C(=O)c1ccc(Cl)cc1 | < 12%
33 | Cc1sc(N)c(C(=O)c2ccc(Cl)cc2)c1CN1CCN(c2ccc(I)cc2)CC1 | < 12%
34 | Nc1sc(-c2ccccc2)c(CN2CCN(c3cccc(C(F)(F)F)c3)CC2)c1C(=O)c1ccc(Cl)cc1 | < 12%
35 | Cc1sc(N)c(C(=O)c2ccc(Cl)cc2)c1CN1CCN(c2ccc(F)cc2)CC1 | < 12%
36 | COc1ccc(N2CCN(Cc3c(C)sc(N)c3C(=O)c3ccc(Cl)cc3)CC2)cc1 | < 12%
37 | Nc1sc(-c2ccccc2)c(CN2CCN(c3ccccc3)CC2)c1C(=O)c1ccc(Cl)cc1 | < 12%

The compounds below were run against T1, Adenosine receptor A1 (Homo sapiens) (assay: Allosteric enhancing activity at human adenosine A1 receptor expressed in CHO cells assessed as inhibition of forskolin-stimulated cAMP accumulation at 100 nM incubated for 10 mins prior to forskolin-stimulation measured after 5 mins by competition protein binding assay in presence of 2-chloro-N6-cyclopentyladenosine).
Assay type: functional, cell-based

Row | SMILES | inhibition
38 | Nc1sc(-c2ccc(Cl)cc2)c(CN2CCN(c3ccc(Cl)c(Cl)c3)CC2)c1C(=O)c1ccc(Cl)cc1 | 67%
39 | Nc1sc(-c2ccc(Cl)cc2)c(CN2CCN(c3ccc(C(F)(F)F)cc3)CC2)c1C(=O)c1ccc(Cl)cc1 | 75%
40 | Cc1sc(N)c(C(=O)c2ccc(Cl)cc2)c1CN1CCN(c2ccc(I)cc2)CC1 | 45%
41 | Nc1sc(-c2ccccc2)c(CN2CCN(c3cccc(C(F)(F)F)c3)CC2)c1C(=O)c1ccc(Cl)cc1 | 60%
42 | Cc1sc(N)c(C(=O)c2ccc(Cl)cc2)c1CN1CCN(c2ccc(F)cc2)CC1 | 53%
43 | COc1ccc(N2CCN(Cc3c(C)sc(N)c3C(=O)c3ccc(Cl)cc3)CC2)cc1 | 30%
44 | Nc1sc(-c2ccccc2)c(CN2CCN(c3ccccc3)CC2)c1C(=O)c1ccc(Cl)cc1 | 74%

What follows are compounds tested against T1, Adenosine receptor A1 (Homo sapiens) (assay: Allosteric enhancing activity at human adenosine A1 receptor expressed in CHO cells assessed as inhibition of forskolin-stimulated cAMP accumulation at 10 uM incubated for 10 mins prior to forskolin-stimulation measured after 5 mins by competition protein binding assay).
Assay type: functional, cell-based

Row | SMILES | inhibition
45 | Nc1sc(-c2ccc(Cl)cc2)c(CN2CCN(c3ccc(Cl)c(Cl)c3)CC2)c1C(=O)c1ccc(Cl)cc1 | 69%
46 | Nc1sc(-c2ccc(Cl)cc2)c(CN2CCN(c3ccc(C(F)(F)F)cc3)CC2)c1C(=O)c1ccc(Cl)cc1 | 83%
47 | Cc1sc(N)c(C(=O)c2ccc(Cl)cc2)c1CN1CCN(c2ccc(I)cc2)CC1 | 54%
48 | Nc1sc(-c2ccccc2)c(CN2CCN(c3cccc(C(F)(F)F)c3)CC2)c1C(=O)c1ccc(Cl)cc1 | 63%
49 | Cc1sc(N)c(C(=O)c2ccc(Cl)cc2)c1CN1CCN(c2ccc(F)cc2)CC1 | 50%
50 | COc1ccc(N2CCN(Cc3c(C)sc(N)c3C(=O)c3ccc(Cl)cc3)CC2)cc1 | 31%
51 | Nc1sc(-c2ccccc2)c(CN2CCN(c3ccccc3)CC2)c1C(=O)c1ccc(Cl)cc1 | 79%
